According to patent publication US20070264241A1, “Compounds for Enhanced Cancer Therapy” (priority 2004, published 2007):
Read-outs that look alike come from different tables or passages of the source.

Assays:
U343MG cells = assay: XTT cytotoxicity assay of nucleoside analogues with or without phenylbutyrate pre-incubation; type: cell-based, human; details: for IC50: 120 hours drug exposure, combinations: 24 h pre-incubation with 3.16 mM phenylbutyrate
Method: (§1) Cells were seeded at a density of 1.000-2.000 cells/well in 96-well plates. […] Plated incubated for 24 hours (37° C., 5% CO2) where after media was discarded and replaced by media conditioned with various concentrations of nucleoside analogs (e.g. AZT), 200 μl/well. After 120 hours of drug exposure the experiments were terminated. Cell proliferation/cytotoxicity was assessed by adding the colour generating substrates of the Cell Proliferation kit II (XTT) from Roche (Cat. No. 1465015) and measuring absorbance at 450 nm and 690 nm with a Thermo Labsystems Multiscan Ascent reader. The data was corrected for background media-only absorbance where after the 50% growth inhibitory concentration—IC50 (the dose that inhibits cell growth by 50%) was calculated for each treatment. Cells were seeded at a density of 1.000-2.000 cells/well in PLL coated 96-well plates. […] Plated incubated for 24 hours (37° C., 5% CO2) where after media was discarded and replaced by media conditioned with various concentrations of nucleoside analogs; AZT (Sigma # A2169), AraC (Sigma # C6645), Cladribine (CdA) (Sigma #C4438), Gancidovir (GCV) (Sigma # G2536) and Gemcitabine (Orifarm), 200 μl/well. After 120 hours of drug exposure the experiments were terminated. Cell proliferation/cytotoxicity was assessed by adding the colour generating substrates of the Cell Proliferation kit II (XTT) from Roche (Cat. No. 1465015) and measuring absorbance at 450 nm and 690 nm with a Thermo Labsystems Multiscan Ascent reader. he data was corrected for background media-only absorbance where after the 50% growth inhibitory concentration—IC50 (the dose that inhibits cell growth by 50%) was calculated for ach treatment.

CL2:6 cells = assay: as above; type: cell-based; details: 120 hours drug exposure; for IC50: combinations: 24 h pre-incubation with 3.16 mM phenylbutyrate; for sensitivity improvement/increase by phenylbutyrate pre-incubation: CL2:6 pre-incubated 24 h with phenylbutyrate
Method: as §1

U87MG cells = assay: XTT cytotoxicity assay of phenylbutyrate and of nucleoside analogues with or without phenylbutyrate pre-incubation; type: cell-based, human; details: 120 hours drug exposure; for IC50: combinations: 24 h pre-incubation with 3.16 mM phenylbutyrate, read-out: IC50 U87MG; for sensitivity increase by phenylbutyrate pre-incubation: U87MG pre-incubated 24 h with phenylbutyrate
Method: Briefly, cells were harvested by trypsinzation, stained by Tryphan Blue for cell viability counting, seeded in triplicate in 96-well plates (1.000-2.000 cells/well) where after media conditioned with a fixed concentration of phenyl butyrate (3.16 mM) were added to the plates followed by incubation for 24 hours at 37° C. and 5% CO2. Cell proliferation/cytotoxicity was assessed by adding the colour generating substrates of the Cell Proliferation kit II (XTT) from Roche (Cat. No. 1465015) and measuring absorbance at 450 nm and 690 nm with a Thermo Labsystems Multiscan Ascent reader.
Cells were seeded at a density of 1.000-2.000 cells/well in 96-well plates. Cells were pre-incubated with 4-phenyl butyrate for 24 hours prior to drug exposure by adding media conditioned with phenyl butyrate at a fixed concentration (3.16 mM). Plated incubated for 24 hours (37° C., 5% CO2) where after media was discarded and replaced by media conditioned with various concentrations of nucleoside analogs (e.g. AZT), 200 μl/well. After 120 hours of drug exposure the experiments were terminated. Cell proliferation/cytotoxicity was assessed by adding the colour generating substrates of the Cell Proliferation kit II (XTT) from Roche (Cat. No. 1465015) and measuring absorbance at 450 nm and 690 nm with a Thermo Labsystems Multiscan Ascent reader.
The data was corrected for background media-only absorbance where after the 50% growth inhibitory concentration—IC50 (the dose that inhibits cell growth by 50%) was calculated for each treatment.
Briefly, cells were harvested by trypsinzation, stained by Tryphan Blue (Cambrex) for cell viability counting, seeded in triplicate in poly-L-lysine (PLL) (Sigma # P6282) coated 96-well plates (1.000-2.000 cells/well) where after media conditioned with a fixed concentration of phenyl butyrate (3.16 mM) was added to the plates followed by incubation for 24 hours at 37° C. and 5% CO2. Cell proliferation/cytotoxicity was assessed by adding the colour generating substrates of the
Cells were seeded at a density of 1.000-2.000 cells/well in PLL coated 96-well plates. Cells were pre-incubated with 4-phenyl butyrate for 24 hours prior to drug exposure by adding media conditioned with phenyl butyrate at a fixed concentration (3.16 mM). Plated incubated for 24 hours (37° C., 5% CO2) where after media was discarded and replaced by media conditioned with various concentrations of nucleoside analogs; AZT (Sigma # A2169), AraC (Sigma # C6645), Cladribine (CdA) (Sigma #C4438), Gancidovir (GCV) (Sigma # G2536) and Gemcitabine (Orifarm), 200 μl/well. After 120 hours of drug exposure the experiments were terminated. Cell proliferation/cytotoxicity was assessed by adding the colour generating substrates of the Cell Proliferation kit II (XTT) from Roche (Cat. No. 1465015) and measuring absorbance at 450 nm and 690 nm with a Thermo Labsystems Multiscan Ascent reader. he data was corrected for background media-only absorbance where after the 50% growth inhibitory concentration—IC50 (the dose that inhibits cell growth by 50%) was calculated for ach treatment.

[1] = test system: hGBM-1, hGBM-5 and hGBM-14 glioblastoma cultures; assay: MTT assay of cell viability and proliferation in primary glioblastoma cultures; type: cell-based, human; details: hGBM-1, hGBM-5, hGBM-14; 24 hours (FIG. 2)
Method: Proliferation of cultured glioma cells was assessed by 3-(4,5-dimethylthiazol-2-yl)-2,5-diphenyltetrazolium bromide (MTT, Sigma) assay. MTT tetrazolium salt was dissolved in serum-free culture medium (0.5 mg/ml), added to the cells (150 μl/well) and incubated for 30 min at 37° C. Formazan dye, formed by viable cells, was solubilized in 300 μl of isopropanol. Aliquots (100 μl) of the solutions were transferred to 96-well microplates. The absorbance at 570 nm (with reference at 650 nm) was measured using a microtiter plate spectrophotometer (Anthos HT III). The results were expressed as percentage of viablecells compared to the control sample of untreated cells (100%).

[2] = test system: glioma cells expressing HSV-TK (S6) mixed with RFP cells; assay: Gap junction mediated cell death (bystander effect), MTT ratio A1:RFP/S6:RFP; type: cell-based, Rat; details: added to ganciclovir and 4-PB treatment
Method: Mixtures of cell dones were treated with drugs as indicated. After 96 h (grey bar), 120 h (white bar) and 168 h (black bar) MTT tests from three samples were performed. The ratios of the MTT tests from TK negative and TK positve mixtures (A1:RFP/S6:RFP) are shown.
Glioma cells with stable expression of green fluorescent protein (EGFP) and the herpes simplex virus thymidine kinase expressing gene HSV-TK in sense (S6) or in antisense (A1) were mixed with cells stably expressing the red fluorescent protein (RFP) (ratio 3:7 S6:RFP or A1:RFP). Ganciclovir, 4-phenylbutyrate and AGA were added 3 hrs after seeding the cells, except for AGA, which was added directly at seeding of cells. After 48 hours, cells were split and after 96, 120 and 168 hrs one each of the cell culture quadruplicates was used for MTT-test while one sample was employed for FACS analysis. After 144 h cells from the third of the quadruplicate were split again and the last quadruplicate sample was analyzed the following day (168 h).
Proliferation of cultured glioma cells was assessed by 3-(4,5-dimethylthiazol-2-yl)-2,5-diphenyltetrazolium bromide (MTT, Sigma) assay. […] The absorbance at 570 nm (with reference at 650 nm) was measured using a microtiter plate spectrophotometer (Anthos HT III). The results were expressed as percentage of viable cells compared to the control sample of untreated cells (100%).

[3] = test system: gap junction communication between S6 and RFP cells; assay: Fluorescent dye transfer between glioma cells (S6 to RFP); type: cell-based, Rat; details: unlabeled recipient cells
Method: S6 and RFP cells were plated each in two separate dishes with one dish of each cell type treated either with AGA or DMSO. S6 cells of both dishes were incubated with Calcein-AM and Dil. Cells were trypsinized and 85% RFP cells were mixed with 15% S6 cells and mixtures were co-cultured in two dishes where one contained cells pretreated with AGA (right panel). After 2.5 hours cells were incubated with Hoechst nuclear stain and Calcein-AM dye transfer from S6 cells to RFP cells was monitored.
Glioblastoma cells were cultured on 35 mm petri dishes and in vitro labelled with 5 μM calcein-AM (acetomethylic ester) and 10 μM Dil (Molecular Probes) diluted in supplemented serum free medium DMEM/F12 and incubated for 30 min at 37° C. The cells were washed once with the same medium, trypsinized and suspended in the culture medium induding 10% FBS. The cells were pelleted by centrifugation at 1600 rpm for 1 minute and resuspended in fresh culture medium. The procedure was repeated twice. Following the second resuspension, the labelled cells were plated on top of unlabelled cells of the same origin. These cells were either pretreated with 4-PB at a concentration of 5 mM, or non-treated serving as a control. The labeled cells were then allowed to settle for 1 hour, followed by analyses using epifluorescence detection microscopy every 30 minutes for up to 6 hours. […]

U87MG wt cells = assay: Cell killing effect of AZT, XTT assay, non-transduced cells; type: cell-based, human; details: 120 hours
Method: Exponentially growing U87 wt and tomato kinase expressing cells were plated at a density of 2.000 cells/well in poly-L-lysine coated 96-well plates in 100 μl conditioned medium and incubated 37° C. in a humidified incubator with a gas phase of 5% CO2. After 24 hours, medium was replaced with medium containing varying concentrations of AZT. Hereafter, cells were exposed to drug conditioned media for 120 constitutive hours. The chemo resistance of cultured cells was monitored by the surviving cell fraction as a function of the drug concentration. Viability of cells was determined via the colorimetric XTT assay (XTT kit II—Roche, cat no. 1465015). Briefly, cell media was carefully removed and 100 μl fresh media and 50 μl XTT mix was added to each well. The absorbance at 450 and 690 nm was determined using an ELISA plate reader (Ascent, ThermoLab). The IC50 value (50% inhibition concentration) of the investigated compound was calculated as the mean value of each experiment using SigmaPlot® (Dyrberg Trading, DK).

[4] = test system: U87MG cells expressing tomato thymidine kinase; assay: Cell killing effect of AZT, XTT assay, tomato thymidine kinase transduced cells; type: cell-based, human; details: for IC50: U87MG tomato TK
[5] = test system: cell line transfected with Dm dNK variant; details: cited from earlier work

Q: For Nc1nc(O)c2ncn(COC(CO)CO)c2n1 [GCV, 9-[2-hydroxy-1-(hydroxymethyl)ethoxyl-methyl]-guanosine], which IC50 (U343MG cells; Homo sapiens, U-343MG) is on record?
A: The IC50 was 104 µM.

Q: And the IC50 (CL2:6 cells)?
A: The IC50 was 3360 µM.

Q: And the “sensitivity improvement/increase by phenylbutyrate pre-incubation” value (CL2:6 cells)?
A: Its value is 1.4 times.

Q: What does the source list for Nc1ccn([C@@H]2O[C@H](CO)[C@@H](O)[C@@H]2O)c(=O)n1 [AraC, cytidine-arabinoside]?
A: IC50 (U87MG cells): 4340 µM; sensitivity increase by phenylbutyrate pre-incubation (U87MG cells): 3.5 times

Q: For CCCC(=O)[O-].[Na+] [sodium butyrate], which “antiproliferative potency compared with 4-PB (MTT)” value [1] is on record?
A: Its value is “less potent”.

Q: For Nc1ccn([C@@H]2O[C@H](CO)[C@@H](O)C2(F)F)c(=O)n1 [Gemcitabine, 2′,2′-difluorodeoxycytidine], which IC50 (U87MG cells; Homo sapiens, U-87 MG) is on record?
A: Its IC50 is 0.248 µM.

Q: And the “sensitivity increase by phenylbutyrate pre-incubation” value (U87MG cells)?
A: The value was 7.8 times.

Q: With O=C1CCc2c(ccc3ccccc23)O1 [Splitomicin, splitomicin] as the molecule, how does the “antiproliferative potency compared with 4-PB (MTT)” value [1] read?
A: The value was “less potent”.

Q: For Nc1nc(Cl)nc2c1ncn2[C@H]1C[C@H](O)[C@@H](CO)O1 [CdA, 2-chloro-2′-deoxyadenosine], which IC50 (U87MG cells; Homo sapiens, U-87 MG) is on record?
A: The IC50 was 5.74 µM.

Q: And the “sensitivity increase by phenylbutyrate pre-incubation” value (U87MG cells)?
A: Its value is 2.3 times.

Q: With CC1(C)[C@@H](O)CC[C@]2(C)[C@H]3C(=O)C=C4[C@H]5C[C@@](C)(C(=O)O)CC[C@]5(C)CC[C@@]4(C)[C@]3(C)CC[C@@H]12 [AGA, 18α glycyrrhethinic acid] as the molecule, how does the “bystander killing effect upon addition of gap junction inhibitor” value [2] read?
A: Its value is “reduced”.

Q: What about the “calcein transfer from Dil-positive donor cells” value [3] of the same molecule?
A: Its value is “inhibited”.

Q: With CC(/C=C/C(=O)NO)=C\[C@@H](C)C(=O)c1ccc(N(C)C)cc1 [Trichostatin A] as the molecule, how does the “antiproliferative potency compared with 4-PB (MTT)” value [1] read?
A: Its value is “less potent”.

Q: For CCCC(CCC)C(=O)O [valproic acid], which “antiproliferative potency compared with 4-PB (MTT)” value [1] is on record?
A: Its value is “less potent”.

Q: For Cc1cn([C@H]2C[C@H](N=[N+]=[N-])[C@@H](CO)O2)c(=O)[nH]c1=O [AZT, 3′-azido-3′-thymidine], which IC50 (U343MG cells) is on record?
A: Its IC50 is 56 µM.

Q: What about the “sensitivity improvement by phenylbutyrate pre-incubation” value (U343MG cells; U343MG pre-incubated 24 h with phenylbutyrate) of the same molecule?
A: The value was 4.2 times.

Q: What about the IC50 (CL2:6 cells) of the same molecule?
A: Its IC50 is 573 µM.

Q: What about the “sensitivity improvement/increase by phenylbutyrate pre-incubation” value (CL2:6 cells) of the same molecule?
A: Its value is 1.7 times.

Q: And the IC50 (U87MG cells)?
A: Its IC50 is 6000 µM.

Q: What about the IC50 (U87MG wt cells) of the same molecule?
A: The IC50 was 7430 µM.

Q: And the “sensitivity increase of tomato TK expressing U87 cells compared to wt U87MG” value [4]?
A: Its value is 500 fold.

Q: And the IC50 ([4]; 120 hours, read-out: IC50 for tomato TK transduced cells)?
A: Its IC50 is 14.8 µM.

Q: What about the IC50 ([4]; read-out: IC50 measured in FIG. 15B, approximate) of the same molecule?
A: Its IC50 is roughly 15 µM.

B1: B5: mutant form of the Drosophila melanogaster Dm dNK deoxyribonucleoside kinase (SEQ ID NO 5) (protein)
chain: MAEAASCARKGTKYAEGTQPFTVLIEGNIGSGKTTYLNHFEKYKNDICLLTEPVEKWRNVNGVNLLELMYKDPKKWAMPFQSYATLTMLQSHTAPTNKKLKIMERSIFSARYCFVENMRRNGSLEQGMYNTLEEWYKFIEESIHVQADLIIYLRTSPEVAYERIRQRARSEESCVPLKYLQELHELHEDWLIHQRRPQSCKVLVLDADLDLENIGTEYQRSESSIFDAISSNQQPSPVPVSPSKRQRVAR
modifications: Drosophila melanogaster
Q: With B1 as the molecule, how does the “degree of activation for gemcitabine relative to wild type Dm dNK” value [5] read?
A: The value was “approximately 50 times”.
